The text below walks through data of US20240131032A1, “AN ACTIVITY-GUIDED MAP OF ELECTROPHILE-CYSTEINE INTERACTIONS IN PRIMARY HUMAN IMMUNE CELLS” (The Scripps Research Institute, priority 2019, published 2024).

Molecules are shown by their SMILES. Some results are limits rather than exact numbers.

One data set concerns FAM213B and HLA-F. Put plainly: Expression-based proteomics (TMT-exp) of compound-treated T cells, FAM213B and HLA-F. To be noted: 24 h; >3000 total proteins quantified. The class given is cell-based, human. As for the experimental part: FIG. 7B is a scatter plot representation of protein abundance changes caused by BPK-25 (10 μM, 24 h) in two independent replicate experiments, with decreases in NuRD complex components highlighted in red. FIG. 7C is a heatmap of top proteins with decreased abundance in BPK-25-treated T cells showing that the subset of these proteins in the NuRD complex (asterisks) were largely unaltered by other active compounds and blocked in their degradation by co-treatment with the proteasome inhibitor MG132. […] FIG. 7E is a bar graph […] showing time-dependent reductions in NuRD complex members in human T cells treated with BPK-25 (10 μM). Left, representative western blots. Right, quantification of changes in protein. […] FIG. 7G is a heat map showing the changes in cysteine reactivity for NuRD complex members in human T cells treated with BPK-25 and other active compounds.
Freshly isolated T cells (1.6×10^7 cells, 2×10^6 cells/mL in RPMI media) were treated with compound or DMSO for 24 h, pelleted (600 g, 5 min), and washed with PBS (1×10 mL). The cells were then transferred to an Eppendorf tube in additional PBS (1 mL), pelleted (600 g, 5 min), flash frozen, and kept at −80° C. until further analysis. […]
At individual TMT experiment level, the following filters were applied to remove low-quality peptides: removal of non-unique peptides; removal of half-tryptic peptides; removal of peptides with more than one internal miscleaved site; removal of cysteine-containing peptides; removal of peptides with low (<10,000) sum of reporter ion intensities for control channels, and peptides with high variation between the replicate control channels (coefficient of variance >0.5). R values (compound-treated vs. DMSO-treated) were calculated using the reporter ion intensities of compound and DMSO treated TMT channels for each treatment group. […] Proteins were required to have at least two unique quantified peptides in each experiment and were quantified in at least two independent experiments.

For a further data set, the system named is NFATc2. Put plainly: NFAT pathway activation in stimulated T cells (western blot of NFATc2). Particulars: 4 h. The class given is cell-based, human. As for the experimental part: FIG. 22A and FIG. 22B show the effects of active compounds on NFAT pathway activation. […] FIG. 22C and FIG. 22D show the effects of active compounds on MAPK pathway. […] All treatments were done for 24 h.

For the next data set, the system named is primary human T cells. The data set can be described thus: T cell viability by flow cytometry (near-IR LIVE/DEAD stain). In kind it is cell-based. To be noted: for cytotoxicity: concentration-dependent profiles, at <20 μM. As for the experimental part:
FIG. 4A-4D is an overview of a multidimensional screen to identify elaborated electrophilic compounds that suppress T cell activation. FIG. 4A is a workflow for T-cell activation screen. Primary human T cells were treated with a focused library of elaborated electrophilic compounds (10 μM, structures of compounds in FIG. 12), a positive control immunosuppressive compound (DMF, 50 μM), or DMSO under TCR-stimulating conditions in 96-well plates pre-coated with 5 μg/mL αCD3 and 2 μg/mL αCD28 for 24 h. T cell activation was measured using a combination of markers, including IL2 and IFNγ secretion, as well as surface expression of CD25 and CD69. T cell viability was measured by flow cytometry using a Fixable Near-IR LIVE/DEAD™ Cell Stain. Compounds were considered as active hits if they reduced IL2 cytokine production by >65% with <15% reduction in T cell viability in the cytotoxicity assay compared to DMSO control. […] FIG. 4C are structures of active hit compounds selected for follow-up studies, including two acrylamides (BPK-21, BPK-25), two chloroacetamides (EV-3, EV-93) and DMF as a positive control. FIG. 4D are line graphs showing T cell activation and cytotoxicity profiles for selected hit compounds.
Non-tissue culture treated 96-well plates were pre-coated with αCD3 (5 μg/mL) and αCD28 antibodies (2 μg/mL) in PBS (100 μL/well) and left at 4° C. overnight. Freshly isolated T cells were re-suspended in RPMI media supplemented with 10% FBS, L-glutamine (2 mM), penicillin (100 U/mL), and streptomycin ([…]) at 2×10^6 cells/mL. Compound stocks (200×) in DMSO were diluted to 2× stocks in the working RPMI media in another 96-well plate. The pre-coated 96-well treatment plates were washed with PBS ([…]), T cells (100 μL/well, 2×10^5 cells/well) were then added to the wells, followed by the addition of 2× compound stocks in RPMI media (100 μL). The outer wells of the plates were filled with media without cells to avoid the edge effect in the assay. The treatment was done overnight (24 h) at 37° C. in a 5% CO2 containing incubator. Following the treatment, the cells were transferred to a U-bottom 96-well plate and harvested by centrifugation (600 g, 3 min, 4° C.). The supernatants were kept and stored at −80° C. for further cytokine analysis, while the cells were washed with PBS (2×150 μL) prior to staining for flow cytometry analysis.
Following the PBS washes, the cells were stained with fixable near-IR LIVE/DEAD cell stain (Invitrogen) according to manufacturer's instructions. Briefly, one vial of near-IR LIVE/DEAD dye was resuspended in DMSO (50 μL) and diluted with PBS (1:1000). The diluted stain was added to each well (200 μL) and the cells were incubated for 30 min at room temperature in the dark. After this time, the cells were pelleted (600 g, 3 min, 4° C.), washed once with PBS (200 μL/well) and incubated with a freshly made cocktail of antibodies for the appropriate cell surface markers diluted in PBS containing 2% FBS (1:400 antibody dilution).

`C=CC(=O)N(Cc1cccc(Cl)c1Cl)c1ccc(Oc2ccccc2)c(C(F)(F)F)c1` [BPK-21]: the “reductions in FAM213B and HLA-F” value in the data set with FAM213B and HLA-F is “also affected”. In addition, in the data set on NFATc2, the “reductions in NFATc2 dephosphorylation (NFAT activation)” value is on record as “did not appear to impact”. Besides, the cytotoxicity result with primary human T cells was “negligible cytotoxicity”.
For `C=CC(=O)N(Cc1cccc(Cl)n1)c1ccc(C(=O)Nc2ccccc2)nc1` [BPK-25], in the data set with FAM213B and HLA-F, the “reductions in FAM213B and HLA-F” value is greater than 50%. Besides, the NFATc2 expression entry in the data set with NFATc2 was “reduced NFATc2 expression”. The cytotoxicity entry with primary human T cells was “negligible cytotoxicity”.
The viability is the share of living cells, or the viability signal relative to a control. Consider `COC(=O)/C=C/C(=O)OC` [DMF, reference compound], for which the viability with primary human T cells (electrophilic compounds 10 μM each (DMF 50 μM), 24 h) was greater than 85%.
For `O=C(CCl)N1CCN(S(=O)(=O)c2ccc(-c3ccncc3)cc2)CC1` [EV-3], the “reductions in FAM213B and HLA-F” value in the data set with FAM213B and HLA-F is listed as “also affected”. The cytotoxicity entry with primary human T cells is reported as “negligible cytotoxicity”.
